Experimental data reported in patent publication US12173018B2, “Penicillin-binding protein inhibitors” (priority 2018, dated 2024).
≈ marks a conversion by molar mass, not a printed value. Read-outs that look alike come from different tables or passages of the source.

Legend:
[1] = target: E. coli PBP2 (Escherichia coli (strain K12), UniProt P0AD65); assay: E. coli PBP2 Bocillin-FL fluorescence polarization competition binding assay; details: fluorescence polarization competition binding with Bocillin-FL; read-out: E. coli K12 PBP2 Potency (EC50)
Chain of E. coli PBP2 (P0AD65 whole entry): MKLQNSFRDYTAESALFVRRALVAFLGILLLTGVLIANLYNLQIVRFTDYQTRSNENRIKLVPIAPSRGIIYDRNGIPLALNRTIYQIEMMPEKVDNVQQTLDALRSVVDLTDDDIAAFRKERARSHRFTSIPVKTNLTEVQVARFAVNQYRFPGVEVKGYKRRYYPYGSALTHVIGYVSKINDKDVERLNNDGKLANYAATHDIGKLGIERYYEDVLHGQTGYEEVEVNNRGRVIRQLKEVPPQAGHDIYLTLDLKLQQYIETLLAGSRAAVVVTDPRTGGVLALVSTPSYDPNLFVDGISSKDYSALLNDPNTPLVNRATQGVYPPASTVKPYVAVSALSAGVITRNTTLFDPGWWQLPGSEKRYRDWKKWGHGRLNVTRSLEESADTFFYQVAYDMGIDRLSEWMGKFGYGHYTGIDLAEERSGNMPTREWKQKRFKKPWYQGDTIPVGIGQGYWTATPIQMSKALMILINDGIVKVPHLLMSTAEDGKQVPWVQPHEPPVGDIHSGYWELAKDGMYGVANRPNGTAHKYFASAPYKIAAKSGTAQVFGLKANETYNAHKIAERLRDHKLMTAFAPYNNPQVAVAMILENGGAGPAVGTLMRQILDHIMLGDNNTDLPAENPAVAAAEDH
Outline: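 Purified PBP2 at 1.5 μM final was preincubated with boronic acid inhibitor, then Bocillin-FL added to 0.1 μM final in Hepes pH 8.0/NaCl/glycerol buffer. Polarization was monitored 90 min; the concentration halving probe binding is reported as EC50.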

[2] = test system: engineered strain of Escherichia coli harboring CTX-M15; assay: microbe, parasite or virus in culture; format: cell-based; details: Escherichia coli, read-out: Microbiological Activity (MIC in mg/L), E. coli DH5α/pLBII-CTX-M15, engineered strain producing CTX-M15
[3] = target: E. coli PBP4 (Escherichia coli (strain K12), UniProt P24228); assay: E. coli PBP4 Bocillin-FL fluorescence polarization competition binding assay
Chain of E. coli PBP4 (P24228 21-477): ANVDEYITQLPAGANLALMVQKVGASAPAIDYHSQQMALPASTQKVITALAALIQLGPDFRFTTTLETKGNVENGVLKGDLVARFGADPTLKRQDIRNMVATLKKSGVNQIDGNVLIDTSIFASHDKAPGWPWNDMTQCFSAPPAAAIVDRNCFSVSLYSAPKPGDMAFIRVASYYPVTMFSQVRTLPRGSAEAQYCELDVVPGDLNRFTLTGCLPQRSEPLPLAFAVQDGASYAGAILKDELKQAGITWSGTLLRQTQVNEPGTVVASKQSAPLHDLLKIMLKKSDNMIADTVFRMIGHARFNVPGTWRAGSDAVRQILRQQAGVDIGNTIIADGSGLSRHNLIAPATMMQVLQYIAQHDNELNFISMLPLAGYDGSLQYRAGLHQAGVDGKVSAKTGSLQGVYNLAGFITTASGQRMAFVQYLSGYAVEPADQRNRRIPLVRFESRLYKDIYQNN
Source text: To determine the ability of boronic acid-based test PBP inhibitors to bind Penicillin Binding Proteins (PBPs), Bocillin-FL (fluorescently-labeled penicillin V; ThermoFisher Scientific) was used in a fluorescence polarization (FP) competition binding assay to assess inhibitor binding to PBP2, PBP3 or PBP4 from Escherichia coli. PBPs were cloned and purified as described previously (King, D. T, et al., ACS Infectious Diseases 2015, 1, 175-184). To establish assay conditions for competition binding, an enzyme titration/saturation binding experiment was initially performed. Bocillin-FL was prepared at 0.2 μM in a buffer comprised of 50 mM Hepes (pH 8.0), 300 mM NaCl and 5% (v/v) glycerol. Saturation binding was performed by mixing 40 μl of PBP solutions ranging in concentrations from 0-12 μM with 40 μl of the 0.2 μM Bocillin-FL solution, in individual wells of a black 384-well microplate. FP was measured immediately upon mixing (Excitation, 490 nm; Emission, 520 nm; g-factor, 0.96), using a Cytation3 (BioTek) microplate reader and measured continuously for up to 120 minutes. […] Assays (80 μl final volume) were performed with PBPs at a final concentration of 1.5 μM, Bocillin-FL at 0.1 μM and beta-lactam concentrations that ranged from 0-1000 μM. […] Bocillin-FL was added and the FP immediately measured for 60 minutes (90 minutes for PBP2). The beta-lactam potency was reported as the concentration of beta-lactam required to reduce binding of Bocillin-FL by […] (EC50). […] Binding assays for boronic acid PBP inhibitors were performed in an identical fashion.

[4] = fluorescence polarization competition binding with Bocillin-FL, read-out: E. coli K12 PBP4 Potency (EC50)

CCN1CCN(C(=O)NC(C(=O)N[C@H]2Cc3cc(F)cc(C(=O)O)c3OB2O)c2csc(N)n2)C(=O)C1=O (stereo partly drawn) [Example 16, (3R)-3-(2-(2-aminothiazol-4-yl)-2-(4-ethyl-2,3-dioxopiperazine-1-carboxamido)acetamido)-6-fluoro-2-hydroxy-3,4-dihydro-2H-benzo[e][1,2]oxaborinine-8-carboxylic acid]
EC50 [1]: > 500 µM
MIC [2]: 32 to 64 mg/L (≈ 58.4 to 117 µM)
EC50 [3, 4]: > 500 µM

CCN1CCN(C(=O)NC(C(=O)N[C@H]2Cc3cccc(C(=O)O)c3OB2O)c2ccc(O)cc2)C(=O)C1=O (stereo partly drawn) [Example 27, (3R)-3-(2-(4-ethyl-2,3-dioxopiperazine-1-carboxamido)-2-(4-hydroxyphenyl)acetamido)-2-hydroxy-3,4-dihydro-2H-benzo[e][1,2]oxaborinine-8-carboxylic acid]
EC50 [1]: > 500 µM
MIC [2]: 8 to 16 mg/L (≈ 15.3 to 30.5 µM)
EC50 [3, 4]: > 500 µM

CCN1CCN(C(=O)NC(C(=O)N[C@H]2Cc3cccc(C(=O)O)c3OB2O)c2ccc(O)cc2F)C(=O)C1=O (stereo partly drawn) [Example 87, (3R)-3-(2-(4-ethyl-2,3-dioxopiperazine-1-carboxamido)-2-(2-fluoro-4-hydroxyphenyl)acetamido)-2-hydroxy-3,4-dihydro-2H-benzo[e][1,2]oxaborinine-8-carboxylic acid]
EC50 [1]: > 500 µM
MIC [2]: 32 to 64 mg/L (≈ 59 to 118 µM)
EC50 [3, 4]: > 500 µM

CCN1CCN(C(=O)NC(C(=O)N[C@H]2Cc3cccc(C(=O)O)c3OB2O)c2cc(O)c(O)cc2F)C(=O)C1=O (stereo partly drawn) [Example 90, (3R)-3-(2-(4-ethyl-2,3-dioxopiperazine-1-carboxamido)-2-(2-fluoro-4,5-dihydroxyphenyl)acetamido)-2-hydroxy-3,4-dihydro-2H-benzo[e][1,2]oxaborinine-8-carboxylic acid]
EC50 [1]: > 500 µM
MIC [2]: 8 to 16 mg/L (≈ 14.3 to 28.7 µM)
EC50 [3, 4]: > 500 µM

CCN1CCN(C(=O)N[C@@H](C(=O)N[C@H]2Cc3ccc(F)c(C(=O)O)c3OB2O)[C@@H](C)O)C(=O)C1=O [Example 110, (R)-3-((2R,3R)-2-(4-ethyl-2,3-dioxopiperazine-1-carboxamido)-3-hydroxybutanamido)-7-fluoro-2-hydroxy-3,4-dihydro-2H-benzo[e][1,2]oxaborinine-8-carboxylic acid]
EC50 [1]: > 500 µM
MIC [2]: 8 to 16 mg/L (≈ 16.2 to 32.4 µM)
EC50 [3, 4]: > 500 µM

CCN1CCN(C(=O)NC(C(=O)N[C@H]2Cc3cccc(C(=O)O)c3OB2O)c2cccc(O)n2)C(=O)C1=O (stereo partly drawn) [Example 117, (3R)-3-(2-(4-ethyl-2,3-dioxopiperazine-1-carboxamido)-2-(6-hydroxypyridin-2-yl)acetamido)-2-hydroxy-3,4-dihydro-2H-benzo[e][1,2]oxaborinine-8-carboxylic acid]
EC50 [1]: > 500 µM
MIC [2]: 32 to 64 mg/L (≈ 60.9 to 122 µM)
EC50 [3, 4]: > 500 µM

CCN1CCN(C(=O)NC(C(=O)N[C@H]2Cc3cccc(C(=O)O)c3OB2O)c2cnc(O)cn2)C(=O)C1=O (stereo partly drawn) [Example 121, (3R)-3-(2-(4-ethyl-2,3-dioxopiperazine-1-carboxamido)-2-(5-hydroxypyrazin-2-yl)acetamido)-2-hydroxy-3,4-dihydro-2H-benzo[e][1,2]oxaborinine-8-carboxylic acid]
EC50 [1]: > 500 µM
EC50 [3, 4]: > 500 µM

O=C(O)c1c(F)ccc2c1OB(O)[C@@H](NC(=O)C(NC(=O)N1CCN(CCF)C(=O)C1=O)c1ccc(O)c(O)c1Cl)C2 (stereo partly shown) [Example 131]
EC50 [1]: > 500 µM
EC50 [3]: 30 to 500 µM
